The source of these data is paper PMC11121470, “Leveraging the Fragment Molecular Orbital and MM-GBSA Methods in Virtual Screening for the Discovery of Novel Non-Covalent Inhibitors Targeting the TEAD Lipid Binding Pocket” (International Journal of Molecular Sciences, 2024).

Test [1] concerns TEAD. To be noted: cited from earlier work.
In test [2] the test system is TEAD. The experiment in a line: TEAD luciferase reporter assay in MCF7 cells. Format: cell-based. Particulars: for IC50: Homo sapiens. The method, then:
(§1) Stable cell lines, namely MCF7 cell TEAD luciferase cells, were maintained in Dulbecco’s modified Eagle medium (DMEM) containing 10% fetal bovine serum, penicillin, and streptomycin, at 37 °C, in a humidified incubator containing 5% CO2. To construct an MCF7-TEAD luciferase stable cell line, MCF7 cells were infected with a TEAD luciferase reporter lentivirus using polybrene (Millipore, Burlington, MA, USA) and then selected with puromycin. The stable cell lines NCI-[…] and NCI-H28 were maintained in Roswell Park Memorial Institute (RPMI) medium.
TEAD luciferase reporter MCF7 cells were seeded into 96-well white plates (3 × 10^4 cells per well). The medium was replaced with DMEM without fetal bovine serum (FBS; 100 μL per well), and the cells were treated with various concentrations of compounds (0.001–10 μmol/L) for 24 h. Fifty microliters of the medium containing compounds was removed from each well, following which 50 μL of FBS in 10% DMEM was added to the cells and incubated for 6 h. Luciferase activity was measured using the One-Glo® Luciferase Assay Kit from Promega (Madison, WI, USA). A small portion of the medium was removed (60 μL) from each well, and 40 μL of One-Glo® Luciferase assay buffer containing reagent was added in its place. Luminescence was measured using a VICTOR® Nivo™ multimode microplate reader (PerkinElmer, Waltham, MA, USA) and normalized to the results of the vehicle.
For orientation: A reporter such as luciferase makes a cellular process visible.

Another test has as its system H226 cancer cell. The experiment in a line: Cell viability assay (CellTiter-Glo 2.0), H226. Format: cell-based. To be noted: Homo sapiens, NCI-H226, 144 h, H226 cells, n = 3. On the procedure:
as §1
(§2) Cells were seeded into 96-well plates (1 × 10^3 cells per well) and changed to RPMI with 1% FBS, and then treated with various concentrations (0.0001–10 μmol/L) of compounds (MGH-CP1, BC-010, BC-011, and BC-013) for 144 h. The medium was replaced with 1% FBS + RPMI containing compounds every 3 d. Cell viability was measured using the CellTiter-Glo® 2.0 Cell Viability Assay Kit from Promega. Before the viability was measured, the drug treatment medium was removed and replaced with 50 μL of FBS-free RPMI and 50 μL of CellTiter-Glo® 2.0 reagent. The cells with medium replacement were incubated for 1 h at room temperature, to prevent exposure to light. Luminescence was measured using a VICTOR® Nivo™ multimode microplate reader (PerkinElmer) and normalized to the results of the vehicle.
In general terms: Cellular ATP, detected with luciferase, serves as a proxy for viable cell number.

The next test relates to H28 cancer cell line. The experiment in a line: Cell viability assay (CellTiter-Glo 2.0), H28. The format is cell-based. To be noted: for IC50: Homo sapiens, NCI-H28, H28 cells, 144 h, n = 3. On the procedure: as §1, §2
Another test concerns the target TEAD2. Details: method as in PMID 26592798. Particulars: reference compounds of Figure 1; cited from earlier work.
In test [3] the test system is TEAD. Particulars: cited from earlier work. The source holds these as a separate data set.
In test [4] the test system is TEAD target genes Ctgf and Cyr61. Put plainly: mRNA expression of TEAD target genes by qRT-PCR in H226 cells. Particulars: 24 h, 1, 5 and 10 μM, n = 3. The format is cell-based. The method, then: H226 cells were seeded at a density of 1 × 10^5 cells/well into a 12-well plate. After treatment with various concentrations (1, 5, and 10 μM) of the compounds, the cells were incubated at 37 °C for 24 h. RNA extraction was performed using the RNeasy Plus Mini Kit (QIAGEN, Hilden, Germany), as per the manufacturer’s protocol. Extracted RNA was quantified using a NanoDrop™ One Microvolume UV–Vis Spectrophotometer (Thermo Fisher, Waltham, MA, USA). cDNA was synthesized using 1000 ng of quantified RNA and an iScript™ cDNA Synthesis Kit (Bio-Rad, Hercules, CA, USA). qRT-PCR was carried out using PowerUp™ SYBR™ Green Master Mix (Thermo Fisher) and primers (hCTGF-F: CCAATGACAACGCCTCCTG, hCTGF-R: TGGTGCAGCCAGAAAGCTC, hCYR61-F: […], hCYR61-R: […], hβ-actin-F: […], hβ-actin-R: […]), with the results normalized to those of the vehicle.
(Real-time PCR tracks product formation cycle by cycle.)

Setting [5] is: reference compounds of Figure 1 and FMO section.
[6] abbreviates: 1 nM to 10 μM, n = 2, read-out: IC50, TEAD reporter luciferase assay.
[7] abbreviates: reference compounds of Figure 1.
[8] abbreviates: Vivace compounds, ref 45 (WO202097389A1).

“Also recorded” adds a separate entry of the source. Like-named read-outs stand apart in the source and are kept apart here. A value given as a limit tells only on which side of the number the result lay.

`O=C(CCl)c1ccccc1Nc1cccc(C(F)(F)F)c1` [TED–347]: in the test with TEAD [1] (reference compound of Figure 1), the EC50 is 5900 ± 400 nM.

With `COc1ncc(NS(C)(=O)=O)cc1/C=C/C1CCC(F)(F)CC1` [Compound 2], the IC50 with TEAD [1] (setting [5]) was 263 nM.

Consider `COC(=O)c1ccc(OC)c(COc2ccccc2)c1` [BC-009], for which, in the test on TEAD [2] (setting [6]), the IC50 stood at 2610 nM.

Take `COc1ccc(C(=O)NN)cc1COc1ccc(C(F)(F)F)cc1` [BC-010]: the IC50 in the test on TEAD [2] (setting [6]) was 768 nM; in the test with H226 cancer cell, 930 nM; with H28 cancer cell line it was 9100 nM.

Turning to `COC(=O)c1ccc(OC)c(COc2ccc(C(F)(F)F)cc2)c1` [BC-013], the IC50 in the test on TEAD [2] (setting [6]) was found to be 417 nM; in the test with H226 cancer cell, 2250 nM; in the test with H28 cancer cell line, 9320 nM.

On to `COc1ccc(C(=O)O)cc1COc1ccccc1` [BC-008], for which the IC50 in the test with TEAD [2] (setting [6]) was more than 10000 nM.

`O=C(O)c1ccccc1Nc1cccc(Br)c1` [Bromofenamic acid, bromofenamic acid]: the Kd on TEAD2 is 234000 nM.

Consider `NNC(=O)c1cccc(COc2ccc(Cl)cc2)c1` [BC-005], for which the “TEAD reporter luciferase activity (in words)” value in the test with TEAD [2] was “increased”.

On to `O=C(O)c1ccccc1Nc1cccc(C(F)(F)F)c1` [Flufenamic acid, flufenamic acid], for which, on TEAD2, the Kd is 73000 nM.

For the compound `COc1ccc(C(=O)NN)cc1COc1ccccc1` [BC-006], the IC50 in the test on TEAD [2] (setting [6]) is 1520 nM.

In the case of `O=C(O)c1cnc2c(cnn2C2CCCC2)c1` [Fragment 1(Merck)], the IC50 in the test with TEAD [1] (setting [7]) is 16000 nM.

Regarding `COc1ccc(C=C(C#N)C#N)cc1COc1cc(C)c(Cl)c(C)c1` [BC-004], the “TEAD reporter luciferase activity (in words)” value in the test on TEAD [2] is reported as “did not exhibit any activity”. In addition, the half-maximal inhibitory concentration (IC50) with TEAD [2] (1 nM to 10 μM, n = 2, printed in figure as 10uM<, read-out: IC50, TEAD reporter luciferase assay) is more than 10000 nM.

As to `C[C@@H](CN(C)C)NC(=O)c1ccc2c(-c3ccc(C(F)(F)F)cc3)cccc2c1` [EX64], the IC50 in the test on TEAD [3] (setting [8]) is 1000 to 3000 nM.

In the case of `COc1ccc(C(N)=O)cc1COc1ccccc1` [BC-007], the IC50 in the test with TEAD [2] (setting [6]) is 5610 nM.

For `Cn1cc2c3cc(C(=O)O)ccc3n(-c3ccc(F)cc3)c2n1` [Merck_20], in the test on TEAD [3] (Merck compounds, ref 40 (WO2021224291A1)), the IC50 is 1900 nM.

With `C=CC(=O)Nc1ccc(C)c(Oc2ccc(Cl)cc2)c1` [K–975], the IC50 with TEAD [1] (setting [5]) is less than 100 nM.

`O=C(Nc1ccccc1)N1CCN(C(=O)c2cccc(OCCC3CCCCC3)c2)CC1` [TM2]: in the test on TEAD [1] (setting [7]), the IC50 is 152 nM.

Take `COc1ccc(C(=O)NN)cc1COc1ccc(Br)cc1` [BC-002]: the “TEAD reporter luciferase activity (in words)” value with TEAD [2] is given as “retained the same activity as BC-001”. The IC50 in the test with TEAD [2] (setting [6]) was found to be 2890 nM.

`COc1ccc(C(N)=O)cc1COc1ccc(C(F)(F)F)cc1` [BC-011]: the IC50 is 72.4 nM in the test on TEAD [2] (setting [6]), 488 nM in the test on H226 cancer cell and more than 10000 nM in the test on H28 cancer cell line. In addition, the “Effect on viability (in words)” value in the test on H28 cancer cell line (H28 cancer cell line) was “did not show any inhibitory effects”. In addition, the “Ctgf mRNA expression” value in test [4] is listed as “significantly downregulated; also recorded: decreased”. Moreover, the “Cyr61 mRNA expression” value in test [4] is reported as “significantly downregulated; also recorded: decreased”.

As for `COc1c(C)cc(N2C[C@@H](O)[C@@H](O)C2=O)cc1/C=C/c1ccc(Cl)cc1` [Compound 1 (Genentech)], in the test on TEAD [1] (setting [7]), the IC50 was 2800 nM.

As to `COc1ccc(C(=O)NN)cc1COc1ccc(Cl)cc1` [BC-003], in the test on TEAD [2], the “TEAD reporter luciferase activity (in words)” value is on record as “retained the same activity as BC-001”. In the test on TEAD [2] (setting [6]), the IC50 came to 3990 nM.

Turning to `Cn1cc2c3cc(C(=O)O)ccc3n(-c3ccc(C(F)(F)F)cc3)c2n1` [MSC-4106], in the test on TEAD [1] (setting [5]), the IC50 was 4 nM.

On to `CC(NC(=O)c1cnc2c(-c3ccc(C(F)(F)F)cc3)cccc2c1)c1ccccn1` (centres unmarked) [VT-105], for which the IC50 in the test on TEAD [1] (setting [5]) is 10.4 nM.

Take `C[C@H](NC(=O)c1ccc2c(-c3ccc(C(F)(F)F)cc3)cccc2c1)c1ccccn1` [VT-104]: the IC50 in the test on TEAD [3] (setting [8]) was 10 nM.

As to `COc1ccc(C(=O)NN)cc1COc1ccc(Cl)c(C)c1` [BC-001], the half-maximal inhibitory concentration (IC50) was 3680 nM with TEAD [2] (setting [6]) and 3700 nM in the test on TEAD [2] (read-out: IC50, reporter assay).

Consider `O=C(CSc1nnc[nH]1)Nc1ccc(C23CC4CC(CC(C4)C2)C3)cc1` [MGH-CP1, reference compound], for which the IC50 in the test with TEAD [2] (setting [6]) is 219 nM; in the test with H226 cancer cell, 1190 nM; with H28 cancer cell line, 1720 nM; in the test on TEAD [1] (setting [5]) it was 1920 nM.

Take `COc1ccc(C(=O)O)cc1COc1ccc(C(F)(F)F)cc1` [BC-012]: the IC50 with TEAD [2] (setting [6]) amounted to 8900 nM.

Turning to `C=CC(=O)N1C[C@@H](n2cc(-c3cccnc3)nn2)[C@H](OCc2ccc(C(F)(F)F)cc2)C1` [MYF–03–69], the IC50 in the test with TEAD [1] (setting [5]) was 385 nM.

A word on the EC50: it is the midpoint of the concentration-response curve. In general, IC50 refers to the concentration at which inhibition is half-maximal. As usually defined, the Kd is the constant that tells how readily two partners part at equilibrium.
